ChEMBL document CHEMBL1201862, “PubChem BioAssay data set” (2004)
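Tested at 5 concentrations; 48 h exposure; 96-well plates; endpoints linearly interpolated, else capped at highest concentration. The concentration for 50% growth inhibition is given as GI50.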 The source made the active and inactive calls. Rule as the data show it: active = GI50 up to about 1.1 µM and inactive = higher.

Experiments:
Experiment in all cases: growth of human tumour cells (NCI), 48 h
T47D = test system: T47D
MDA-N = test system: MDA-N
XF498 = test system: XF498
DMS-273 = test system: DMS-273
HOP-18 = test system: HOP-18
M19-MEL = test system: M19-MEL
SNB-78 = test system: SNB-78
LXFL 529 = test system: LXFL 529

Compound	GI50 (T47D)	GI50 (MDA-N)	other results
CCOC(=O)Nc1ccc(S(=O)(=O)Nc2ccc(Br)cc2)cc1	31.5 µM (inactive)	37 µM (inactive)	
CC(C)CC1c2[nH]c3ccccc3c2C[C@H]2C(=O)NC(Cc3c[nH]c4ccccc34)C(=O)N12 (stereo partly specified)	6.61 µM (inactive)		
COc1ccc(C2=C(N)c3ncccc3C2=O)cc1	> 100 µM (inactive)	> 100 µM (inactive)	
CC(=O)Nc1ccc(COC(O)CN2CCCCC2)cc1[N+](=O)[O-] (stereo unspecified)	> 100 µM (inactive)	> 100 µM (inactive)	
O=c1c2cc([N+](=O)[O-])ccc2n2n1CCCC2	> 100 µM (inactive)	> 100 µM (inactive)	
CP1(=O)CCCCC1			GI50 (XF498): > 100 µM (inactive); GI50 (DMS-273): > 100 µM (inactive); GI50 (HOP-18): > 100 µM (inactive); GI50 (M19-MEL): > 100 µM (inactive); GI50 (SNB-78): > 100 µM (inactive); GI50 (LXFL 529): > 100 µM (inactive)
O=C(CSc1nnc(-c2ccccn2)s1)N/N=C/c1ccc([N+](=O)[O-])cc1	37.1 µM (inactive)	> 100 µM (inactive)	
Brc1ccc(-c2cn3ccncc3n2)cc1	> 100 µM (inactive)	> 100 µM (inactive)	
O=C1NC(N2CCCCC2)=N/C1=C\c1ccc(Cl)cc1	41.5 µM (inactive)	71 µM (inactive)	
CCCCCCCCCCCCCCCCOCC(CCl)OP(=O)(O)OP(=O)(O)OCC1OC(n2ccc(N)nc2=O)C(O)C1O (stereo unspecified)	> 100 µM (inactive)	> 100 µM (inactive)	
O=[N+]([O-])c1cccc2nc3ccccc3c(NCCCN3CCCCC3)c12	0.0179 µM (active)	0.0102 µM (active)	
Cc1cc2c(cc1C)[n+]([O-])c(C(=O)CC(=O)C(=O)Nc1c(C(C)C)cccc1C(C)C)c(C)[n+]2[O-]			GI50 (XF498): > 100 µM (inactive); GI50 (DMS-273): > 100 µM (inactive); GI50 (HOP-18): > 100 µM (inactive); GI50 (M19-MEL): > 100 µM (inactive); GI50 (SNB-78): > 100 µM (inactive); GI50 (LXFL 529): > 100 µM (inactive)
C=CCCCCCCCCCP(=O)(c1ccccc1)c1ccc2c(c1)OCCOCCOCCOCCO2 (stereo unspecified)			GI50 (XF498): 18.7 µM (inactive); GI50 (DMS-273): 15.1 µM (inactive); GI50 (HOP-18): 16.3 µM (inactive); GI50 (M19-MEL): 18.4 µM (inactive); GI50 (SNB-78): 19.1 µM (inactive)
COc1cc2c(NCCN(C)C)nc3c4cc5c(cc4ccc3c2cc1OC)OCO5	6.15 µM (inactive)	3.57 µM (inactive)	
COC(=O)/C(=C\c1ccc(N(CCC#N)CCC#N)cc1)NC(=O)c1cc([N+](=O)[O-])ccc1Cl			GI50 (DMS-273): > 100 µM (inactive); GI50 (HOP-18): > 100 µM (inactive); GI50 (M19-MEL): > 100 µM (inactive); GI50 (SNB-78): > 100 µM (inactive); GI50 (LXFL 529): > 100 µM (inactive)
Cc1c2ccccc2c(C)n2c1nc1ccccc12	17.5 µM (inactive)	10.6 µM (inactive)	
CNC(C#N)c1ccc(OC)cc1 (stereo unspecified)	61.5 µM (inactive)	33.1 µM (inactive)	
N=c1oc2ccccc2cc1-c1nc2ccccc2c(=O)[nH]1	> 100 µM (inactive)	> 100 µM (inactive)	
BrC1(c2ccccc2)C[n+]2c(-c3ccccc3)cc(-c3ccccc3)cc2-c2ccccc21 (stereo unspecified)		0.327 µM (active)	
Cn1cc(S(=O)(=O)NC(=O)Nc2ccc(Cl)cc2)c(=O)c2ccc(Cl)cc21	> 100 µM (inactive)	> 100 µM (inactive)	
Cc1ccc2nc(C(=O)O)c(=O)[nH]c2c1	> 100 µM (inactive)	> 100 µM (inactive)	
COc1ccc(COC(=O)NNC(=O)C2CSC(c3ccccc3)N2C(C)=O)cc1 (stereo unspecified)		> 100 µM (inactive)	

Compound	GI50 (T47D)	GI50 (MDA-N)	other results
O=C1CC(=O)NC(NN2C(=O)/C(=C/c3ccc(Cl)cc3)N=C2c2ccccc2)=N1	28.6 µM (inactive)	15.8 µM (inactive)	
O=c1c2cc([N+](=O)[O-])cnc2sn1-c1ccc(Br)cc1	6.32 µM (inactive)	> 100 µM (inactive)	
Cc1cc(N(CCC#N)CCC#N)ccc1/C=C(/NC(=O)/C=C/c1ccccc1)C(N)=O			GI50 (XF498): 39.7 µM (inactive); GI50 (DMS-273): > 100 µM (inactive); GI50 (M19-MEL): > 100 µM (inactive); GI50 (SNB-78): 97.1 µM (inactive); GI50 (LXFL 529): > 100 µM (inactive)
OCC(O)C(O)C(O)c1nn(-c2ccccc2)c2nc3cc(Cl)c(Cl)cc3nc12 (stereo unspecified)			GI50 (XF498): 23.4 µM (inactive); GI50 (DMS-273): 39.8 µM (inactive); GI50 (HOP-18): 67.5 µM (inactive); GI50 (M19-MEL): 49.1 µM (inactive); GI50 (SNB-78): 54.1 µM (inactive); GI50 (LXFL 529): 57.5 µM (inactive)
CN(C)C1(C(=O)O)CC1	> 100 µM (inactive)	> 100 µM (inactive)	
O=c1n(Cc2ccccc2)c(=O)n2c(=O)n(Cc3ccccc3)c(=O)n12	> 100 µM (inactive)	> 100 µM (inactive)	
C=C1c2nc3ccccc3n2C=C(c2ccc(Cl)cc2)N1c1ccccc1		33.1 µM (inactive)	
OC12c3ccccc3C1CCCCC2N1CCCC1 (stereo unspecified)			GI50 (DMS-273): > 100 µM (inactive); GI50 (HOP-18): > 100 µM (inactive); GI50 (M19-MEL): > 100 µM (inactive); GI50 (SNB-78): > 100 µM (inactive); GI50 (LXFL 529): > 100 µM (inactive)
CC(=O)OC1C2CCC1C1C2C2(Cl)C(Cl)=C(Cl)C1(Cl)C2(Cl)Cl (stereo unspecified)			GI50 (XF498): 11 µM (inactive); GI50 (DMS-273): 12.2 µM (inactive); GI50 (HOP-18): 18.9 µM (inactive); GI50 (M19-MEL): 13.3 µM (inactive); GI50 (SNB-78): 17.4 µM (inactive); GI50 (LXFL 529): 12.5 µM (inactive)
O=C1OCCC1(Cc1ccc(Cl)cc1)Cc1ccc(Cl)cc1			GI50 (XF498): 15.9 µM (inactive); GI50 (M19-MEL): > 100 µM (inactive); GI50 (SNB-78): 42.3 µM (inactive); GI50 (LXFL 529): > 100 µM (inactive)
Nc1c(C(=O)Nc2ccccc2)[n+]([O-])c2ccccc2[n+]1[O-]			GI50 (XF498): 16.6 µM (inactive); GI50 (DMS-273): 20.6 µM (inactive); GI50 (HOP-18): 13.5 µM (inactive); GI50 (M19-MEL): 15 µM (inactive); GI50 (SNB-78): 16.9 µM (inactive); GI50 (LXFL 529): 14.4 µM (inactive)
COC(=O)C12C(=O)O[C@H](C)C1(O)C(C)C(=O)N2C (stereo partly specified)			GI50 (XF498): 0.662 µM (active); GI50 (HOP-18): > 100 µM (inactive); GI50 (M19-MEL): > 100 µM (inactive); GI50 (SNB-78): > 100 µM (inactive)
O=C1c2ccccc2C(=O)N1n1c(Cc2ccccc2)n[nH]c1=O	> 100 µM (inactive)	> 100 µM (inactive)	
Cc1[nH]c2ncn3[nH]c(=S)nc3c2c1Cc1ccccc1	28.8 µM (inactive)		
Cc1c(-c2ccccc2)c(-c2ccc(OCCN(C)C)cc2)n2ccccc12	10.4 µM (inactive)	4.37 µM (inactive)	
COC1=C(OC)C(=O)C(Sc2ccc3ccccc3c2)=CC1=O	5.58 µM (inactive)		
CCN(CC)CCN(C)c1ccc(CO)c2c1c(=O)c1ccccc1[s+]2[O-] (stereo unspecified)	13.4 µM (inactive)		
CSc1ncc2c(n1)-c1ccccc1OC2N1CCOCC1 (stereo unspecified)	24.1 µM (inactive)	> 100 µM (inactive)	
CCOC(=O)c1cnccc1CC1(C#N)c2ccccc2C=CN1C(=O)c1ccccc1 (stereo unspecified)	24.4 µM (inactive)	18.1 µM (inactive)	
Cc1c(-c2ccccc2)c(C#N)c2nnn(-c3ccc(Cl)cc3)c(=O)n12	6.14 µM (inactive)	24.2 µM (inactive)	
Cc1ccc(/C=C2\NC(=S)NC2=O)cc1	> 100 µM (inactive)	> 100 µM (inactive)	
CN(CCCCN(C)CCc1ccc(Cl)c(Cl)c1)CCCCN1CCCC1	2 µM (inactive)	1.26 µM (inactive)	

Compound	GI50 (T47D)	GI50 (MDA-N)	other results
CCC/C(C)=N/NC(=S)SC.CCC/C(C)=N/NC(=S)SC.[Zn+2]	11.5 µM (inactive)		
CC1=C[C@@H](C)C[C@]2(C)CC[C@H](O2)[C@]23CC[C@](C)(C[C@H](O2)[C@@H]2O[C@@](C)(CC2=O)[C@@H](O)[C@H]2CC[C@@]4(CCC[C@@H](O4)[C@H](C)C(=O)O[C@H]4C[C@H]([C@]5(O)OCC[C@H](C)[C@@H]5O)O[C@H]4C=C1)O2)O3	0.0632 µM (active)	0.0233 µM (active)	
Nc1ccc(-c2nc3cc(F)ccc3s2)cc1CO	0.0116 µM (active)	> 100 µM (inactive)	
CCCCCCCCCCCCCCCCCCNc1nc(=O)n(C2CC(O)C(COP(=O)(O)O)O2)cc1F (stereo unspecified)	42.9 µM (inactive)	> 100 µM (inactive)	
COc1cc2c3c(n(C)c(=O)c2cc1OC)-c1cc2c(cc1/C3=C\CCCI)OCO2	0.7 µM (active)	> 70.8 µM (inactive)	
CCOC1CN=C(Nc2cccc3ccccc23)S1 (stereo unspecified)	> 10 µM (inactive)	> 10 µM (inactive)	
O=[N+]([O-])/C(C(Cl)=C(Cl)Cl)=C(\N1CCCCC1)n1cncn1	14.8 µM (inactive)	14.4 µM (inactive)	
CCN(CC)CCCC(C)Nc1ccnc2ccc3nn(C)nc3c12 (stereo unspecified)			GI50 (DMS-273): 26.4 µM (inactive); GI50 (HOP-18): > 100 µM (inactive); GI50 (M19-MEL): 49 µM (inactive); GI50 (SNB-78): 52.7 µM (inactive); GI50 (LXFL 529): 55.5 µM (inactive)
O=C1c2ccccc2-c2nc(-c3ccncc3)cc3c2c1nc1ccccc13		17.4 µM (inactive)	
Cc1nc2ccccc2c(=O)n1/N=C(\N=N\c1ccc(Cl)cc1)c1ccc(N(C)C)cc1			GI50 (XF498): 14.6 µM (inactive); GI50 (DMS-273): 60.1 µM (inactive); GI50 (HOP-18): 46 µM (inactive); GI50 (M19-MEL): > 100 µM (inactive); GI50 (LXFL 529): 47.8 µM (inactive)
CC1=NN(C(=O)Nc2ccc(Cl)cc2)C(=O)C2CCC(=O)N12 (stereo unspecified)			GI50 (XF498): > 100 µM (inactive); GI50 (DMS-273): 47.3 µM (inactive); GI50 (M19-MEL): > 100 µM (inactive); GI50 (SNB-78): > 100 µM (inactive); GI50 (LXFL 529): 2.65 µM (inactive)
CC1(C=O)CCC23COC4(CCC5C6(C)CCC(OC7OCC(OC8OC(CO)C(O)C(OC9OC(CO)C(O)C(O)C9O)C8OC8OCC(O)C(O)C8O)C(O)C7OC7OC(CO)C(O)C(O)C7O)C(C)(C)C6CCC5(C)C4(C)CC2O)C3C1 (stereo unspecified)	1.61 µM (inactive)	0.557 µM (active)	
C/C(=N\NC(=S)N1CCCCC1)c1nc2cccnc2[nH]1	5.08 µM (inactive)	14.6 µM (inactive)	
CC(=O)OCC(OC(C)=O)C(OC(C)=O)C(OC(C)=O)C(C=NN(C(C)=O)S(=O)(=O)c1ccc(/C=C2\NC(=O)N(C)C2=O)cc1)OC(C)=O (stereo unspecified)	15.9 µM (inactive)	32.6 µM (inactive)	
CC(=O)N1CCN(C23OC4(N5CCN(C(C)=O)CC5)C5C6CC(C7C6C4C72)C53)CC1 (stereo unspecified)	> 100 µM (inactive)	> 100 µM (inactive)	
CCN(CC)C1CCC(C2c3cc4c(cc3OC(N3CCOCC3)C2C)OCO4)CC1 (stereo unspecified)	14.4 µM (inactive)	4.28 µM (inactive)	
O=C1CC(C(OCc2ccccc2)C(OCc2ccccc2)C(COCc2ccccc2)OCc2ccccc2)CC(=O)N1 (stereo unspecified)	26.1 µM (inactive)	> 75 µM (inactive)	
CC(=O)O[C@H]1CC[C@@]2(C)[C@@H](CC[C@@H]3[C@@H]2CC(=O)[C@@]2(C)[C@H]3C[C@@H]3CC(C)=CC(=O)[C@@H]32)C1	40 µM (inactive)	43.1 µM (inactive)	
C=C(CO)CC(/C=C(\C)CC/C=C(\C)CCl)OC(C)=O (stereo unspecified)			GI50 (XF498): > 100 µM (inactive); GI50 (DMS-273): > 100 µM (inactive); GI50 (M19-MEL): > 100 µM (inactive); GI50 (SNB-78): > 100 µM (inactive); GI50 (LXFL 529): > 100 µM (inactive)
CCOC1NC(=O)Oc2ccccc21 (stereo unspecified)		> 100 µM (inactive)	
